Measured values from patent US11613525B2 (CTXT PTY LIMITED, priority 2018, dated 2023).

Tests used:
[1] = target: huSTING (HAQ) (Homo sapiens (Human), UniProt Q86WV6, G230A/H232R/R293Q/R71H); test: THP-1 reporter cell line assay, THP-1 STING Lucia ISG cells; format: cell-based; conditions: THP-1 STING Lucia ISG cells; 24 h; top concentration 50 μM; read-out: Cellular EC50 huSTING (HAQ)
[2] = target: T1, human STING (HAQ) (Homo sapiens, UniProt Q86WV6, G230A/H232R/R293Q); test: biochemical; format: binding; conditions: for DSF huSTING (HAQ) ΔTm (° C.): 1 μM protein, compound at 100 μM; for ΔTm at 100 µM: read-out: DSF huSTING (HAQ) ΔTm (° C.)
Protocol: (§1) DSF monitors thermal unfolding of protein in the presence of a fluorescent dye and is typically performed using a real-time PCR instrument. The temperature at which a protein unfolds is measured by an increase in the fluorescence of a dye with affinity for hydrophobic parts of the protein that are gradually exposed during unfolding. The fluorescence of the dye is quenched in aqueous environments, but when the dye associates with hydrophobic sites on the unfolded protein, its fluorescence increases. The fluorescence intensity is plotted as a function of the temperature, generating a sigmoidal curve that can be described by a two-state transition. The inflection point of the transition curve (Tm) is calculated using simple equations such as that of Boltzman.
(§2) Sealed plates were then placed into a Bio-Rad CFX96/C1000 thermocycler and FRET scanning mode (λ^excitation of 490 nm and reads at λ^emission of 570 nm) was used to measure fluorescence intensity. […] The melting point (Tm) obtained for STING protein alone was subtracted from Tm obtained for protein incubated with ligand to generate ΔTm values listed in the table below.
(§3) These additional compounds were tested as described above, however the protein concentration was 2 μM.

[3] = target: T2, huSTING (WT) (Homo sapiens (Human), UniProt Q86WV6, H232R); test: Differential scanning fluorimetry (DSF), huSTING (WT); format: binding; conditions: read-out: DSF huSTING (WT) ΔTm (° C.)
Protocol: as §1, §2, §3
Target sequence in this assay (Q86WV6 other isoform, or with tags, fused parts or gaps, stated change not applied): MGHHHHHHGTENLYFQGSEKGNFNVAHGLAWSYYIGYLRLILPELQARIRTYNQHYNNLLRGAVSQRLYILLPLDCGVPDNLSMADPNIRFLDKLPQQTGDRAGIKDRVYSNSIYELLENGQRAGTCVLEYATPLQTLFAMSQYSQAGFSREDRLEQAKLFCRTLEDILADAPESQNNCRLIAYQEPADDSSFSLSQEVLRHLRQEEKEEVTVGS

[4] = target: T2, huSTING (WT); test: THP-1 reporter cell line assay, THP-1-Dual KI-hSTING-R232 cells; format: cell-based; conditions: read-out: Cellular EC50 huSTING (WT)
Target sequence in this assay (Q86WV6 whole entry H232R): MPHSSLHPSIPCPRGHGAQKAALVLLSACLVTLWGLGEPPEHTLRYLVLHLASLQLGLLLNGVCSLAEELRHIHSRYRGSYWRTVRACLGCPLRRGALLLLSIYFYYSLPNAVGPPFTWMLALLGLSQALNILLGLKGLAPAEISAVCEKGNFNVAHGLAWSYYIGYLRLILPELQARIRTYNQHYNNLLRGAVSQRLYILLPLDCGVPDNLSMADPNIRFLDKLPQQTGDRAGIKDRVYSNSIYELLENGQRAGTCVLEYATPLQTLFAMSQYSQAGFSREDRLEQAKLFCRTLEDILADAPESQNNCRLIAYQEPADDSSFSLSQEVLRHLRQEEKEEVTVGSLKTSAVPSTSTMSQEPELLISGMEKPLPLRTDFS

[5] = target: T1, human STING (HAQ); conditions: read-out: SPR (HAQ) KD; 25° C.

T1 sequence (Q86WV6 whole entry G230A/H232R/R293Q, looked up): as the sequence (Q86WV6 whole entry H232R) above, with G230A, R293Q counted along it
huSTING (HAQ), sequence (Q86WV6 whole entry R71H/G230A/H232R/R293Q): as the sequence (Q86WV6 whole entry H232R) above, with R71H, G230A, R293Q counted along it

Structure (SMILES)	EC50 [1] [µM]	DSF huSTING (HAQ) ΔTm (° C.) [2] [°C]	ΔTm at 100 µM [3] [°C]	EC50 [4] [µM]	Kd [5] [µM]	ΔTm at 100 µM [2] [°C]
NC(=O)c1ccc(OCc2c(C(=O)O)sc3cccc(F)c23)cc1 [Example 1, 3-((4-Carbamoylphenoxy)methyl)-4-fluorobenzo[b]thiophene-2-carboxylic acid]	> 50	7.78	0.99	> 50	32	–
NC(=O)c1ccc(OCc2c(C(=O)OCc3ccccc3)sc3cccc(F)c23)cc1 [Example 3, Benzyl 3-((4-carbamoylphenoxy)methyl)-4-fluorobenzo[b]thiophene-2-carboxylate]	2.94	−0.47	–	> 50	3500	–
NC(=O)c1ccc(OCc2c(C(=O)O)sc3ccccc23)cc1 [Example 6, 3-((4-Carbamoylphenoxy)methyl)benzo[b]thiophene-2-carboxylic acid]	> 50	3.33	-1.15	> 50	90	–
NC(=O)c1ccc(OCc2c(C(=O)O)sc3cc(Cl)ccc23)cc1 [Example 10, 3-((4-carbamoylphenoxy)methyl)-6-chlorobenzo[b]thiophene-2-carboxylic acid]	> 50	1.7	-2.34	> 50	187	–
NC(=O)c1ccc(OCc2c(C(=O)O)sc3c(Cl)cccc23)cc1 [Example 12, 3-((4-Carbamoylphenoxy)methyl)-7-chlorobenzo[b]thiophene-2-carboxylic acid]	> 50	9	3.29	> 50	5.95	–
NC(=O)c1ccc(OCc2c(C(=O)O)sc3ccc(Cl)cc23)cc1 [Example 14, 3-((4-Carbamoylphenoxy)methyl)-5-chlorobenzo[b]thiophene-2-carboxylic acid]	> 50	0.09	-4.26	> 50	120	–
NC(=O)c1ccc(OCc2c(C(=O)O)sc3ccc(F)c(F)c23)cc1 [Example 16, 3-((4-Carbamoylphenoxy)methyl)-4,5-difluorobenzo[b]thiophene-2-carboxylic acid]	> 50	10.12	3.49	> 50	2.19	–
Cc1ccc2sc(C(=O)O)c(COc3ccc(C(N)=O)cc3)c2c1Cl [Example 18, 3-((4-Carbamoylphenoxy)methyl)-4-chloro-5-methylbenzo[b]thiophene-2-carboxylic acid]	> 50	6.29	-0.6	> 50	15.9	–
NC(=O)c1ccc(OCc2c(C(=O)O)sc3cc(Cl)cc(F)c23)cc1 [Example 20, 3-((4-Carbamoylphenoxy)methyl)-6-chloro-4-fluorobenzo[b]thiophene-2-carboxylic acid]	> 50	5.83	-2.76	> 50	34	–
NC(=O)c1ccc(OCc2c(C(=O)O)sc3cccc(Br)c23)cc1 [Example 22, 4-Bromo-3-((4-carbamoylphenoxy)methyl)benzo[b]thiophene-2-carboxylic acid]	> 50	17.08	7.61	41	0.755	–
NC(=O)c1ccc(OCc2c(C(=O)O)sc3cccnc23)cc1 [Example 24, 3-((4-Carbamoylphenoxy)methyl)thieno[3,2-b]pyridine-2-carboxylic acid]	> 50	–	-0.35	> 50	> 10000	0.6
NC(=O)c1ccc(OCc2c(C(=O)O)sc3cccc(Cl)c23)cc1F [Example 26, 3-((4-Carbamoyl-3-fluorophenoxy)methyl)-4-chlorobenzo[b]thiophene-2-carboxylic acid]	> 50	10.82	3.79	> 50	1.6	–
NC(=O)c1c(F)cc(OCc2c(C(=O)O)sc3cccc(Cl)c23)cc1F [Example 28, 3-((4-Carbamoyl-3,5-difluorophenoxy)methyl)-4-chlorobenzo[b]thiophene-2-carboxylic acid]	> 50	6.93	1.19	> 50	10.9	–
COc1cc(C(N)=O)ccc1OCc1c(C(=O)O)sc2cccc(Cl)c12 [Example 30, 3-((4-Carbamoyl-2-methoxyphenoxy)methyl)-4-chlorobenzo[b]thiophene-2-carboxylic acid]	36.3	5.4	-0.32	> 50	22.1	–
NC(=O)c1ccc(OCc2c(C(=O)O)sc3cc(F)cc(F)c23)cc1 [Example 32, 3-((4-Carbamoylphenoxy)methyl)-4,6-difluorobenzo[b]thiophene-2-carboxylic acid]	> 50	7.23	0.63	> 50	7.75	–
COc1cccc2sc(C(=O)O)c(COc3ccc(C(N)=O)cc3)c12 [Example 34, 3-((4-Carbamoylphenoxy)methyl)-4-methoxybenzo[b]thiophene-2-carboxylic acid]	> 50	10.07	3.76	> 50	2.48	–
NC(=O)c1ccc(OCc2c(C(=O)O)sc3cccc(C(F)(F)F)c23)cc1 [Example 36, 3-((4-Carbamoylphenoxy)methyl)-4-(trifluoromethyl)benzo[b]thiophene-2-carboxylic acid]	> 50	12.31	5.96	> 50	1.33	–
NC(=O)c1ccc(OCc2c(C(=O)O)sc3cccc(Cl)c23)c(Cl)c1 [Example 38, 3-((4-Carbamoyl-2-chlorophenoxy)methyl)-4-chlorobenzo[b]thiophene-2-carboxylic acid]	> 50	6.02	-1.4	> 50	16.4	–
NC(=O)c1cc(Cl)c(OCc2c(C(=O)O)sc3cccc(Cl)c23)c(Cl)c1 [Example 40, 3-((4-Carbamoyl-2,6-dichlorophenoxy)methyl)-4-chlorobenzo[b]thiophene-2-carboxylic acid]	> 50	9.91	3.66	39.7	2.8	–
COc1cc(C(N)=O)cc(OC)c1OCc1c(C(=O)O)sc2cccc(Cl)c12 [Example 42, 3-((4-Carbamoyl-2,6-dimethoxyphenoxy)methyl)-4-chlorobenzo[b]thiophene-2-carboxylic acid]	–	2.83	-0.64	–	80.5	–
N#Cc1cc(C(N)=O)ccc1OCc1c(C(=O)O)sc2cccc(Cl)c12 [Example 44, 3-((4-Carbamoyl-2-cyanophenoxy)methyl)-4-chlorobenzo[b]thiophene-2-carboxylic acid]	–	7.64	1.3	–	7.95	–
CCOC(=O)c1sc2cccc(F)c2c1COc1ccc(C(N)=O)cc1F [Example 58, Ethyl 3-((4-carbamoyl-2-fluorophenoxy)methyl)-4-fluorobenzo[b]thiophene-2-carboxylate]	9.19	–	–	27.7	> 10000	0.43
N#Cc1cccc2sc(C(=O)O)c(COc3ccc(C(N)=O)cc3)c12 [Example 63, 3-((4-Carbamoylphenoxy)methyl)-4-cyanobenzo[b]thiophene-2-carboxylic acid]	–	8.07	1.88	–	9.15	–
COc1cc(C(N)=O)cc(C)c1OCc1c(C(=O)O)sc2cccc(Cl)c12 [Example 73, 3-((4-carbamoyl-2-methoxy-6-methylphenoxy)methyl)-4-chlorobenzo[b]thiophene-2-carboxylic acid]	–	1.79	-1.03	–	67	–
CCOC(=O)c1sc2cccc(F)c2c1CCc1ccc(C(N)=O)cc1 [Example 87, Ethyl 3-(4-carbamoylphenethyl)-4-fluorobenzo[b]thiophene-2-carboxylate]	> 50	0.54	–	> 50	3000	–
